Measurements published in patent US7507739B2, “6-[(substituted)phenyl]triazolopyrimidines as anticancer agents” (Wyeth, priority 2003, dated 2009).

What was measured:
COLO 205 cells = experiment: MTS cytotoxicity test with COLO 205 cells; format: cell-based, human; settings: 3 days
Experimental: The assay, which is sold in kit form by Promega (Madison, Wis.; CellTiter 96 AQueous Non-Radioactive Cell Proliferation Assay), is based on the conversion by viable cells, but not by dead cells, of the tetrazolium salt, MTS (3-(4,5-dimethylthiazol-2-yl)-5-(3-carboxymethoxyphenyl)-2-(4-sulphophenyl)-2H-tetrazolium, inner salt), into a water-soluble colored formazan which is detected by spectrophotometry. Compounds are tested at nine concentrations, in order to determine IC50 values. For the test procedure, cells are harvested by trypsinization (or, in the case of non-adherent cells, by simple resuspension), washed, counted and distributed to wells of 96-well flat-bottom microtiter plates at 1000 cells per well in 200 μL of medium. In addition, one row of wells on a separate plate received cells as above (“time 0” plate). All plates are incubated at 37° in humidified 5% CO2 in air for about 24 hr.
On day 2, compounds for test are diluted and added to wells. Compounds are dissolved in DMSO at 10 mg/mL. For each compound, nine serial 2-fold dilutions are prepared in DMSO. Ten μL of each dilution in DMSO is transferred to 100 μL of medium, mixed well, and then 5 μL of this dilution is transferred in quadruplicate to wells containing cells. The final high concentration of each compound is typically 5 μM. Plates are returned to the incubator for three days. At the time of drug addition to the experimental plates, the MTS assay is run on the “time 0” plate. This produced the “time 0 MTS value” which is related to the number of viable cells per well at the time of drug addition.
After three days of culture with test compounds (day 5 overall), the MTS assay is done on all wells of the experimental plates. The absorbance values of the quadruplicate sample wells are averaged and divided by the average of the “time 0” values. The average of control wells without drug, divided by the average “time 0” value, gave the maximal relative increase in MTS color yield due to cell growth during the final three days of culture. The average of control wells with high drug concentration, divided by the “time 0” value, gave the minimal relative color yield for cells that are completely killed. The nine values for each compound are plotted against concentration, and the concentration that produced a relative color yield half way between the maximum and minimum is taken as the IC50 value.
COLO 205 is a human colon carcinoma cell line that is used for comparative testing of the examples of this invention and several reference compounds. This line is sensitive to paclitaxel and vincristine.

[1] = system: DLD1 Human Colon Carcinoma; experiment: Human tumor xenograft test, DLD1; format: in vivo; settings: DLD1, 15 mg/kg intravenously on days 1, 5, 9, and 13
Experimental: (§1) The ability of compounds of this invention to inhibit tumor growth in animals is studied in the athymic mouse xenograft standard pharmacological test. Female nu/nu mice in an outbred albino background are obtained from Charles River Laboratories (Wilmington, Mass.). Animals are injected subcutaneously on the flank with the desired tumor cell suspension. Several days later, mice with tumors of approximately 150 mm^3 are selected from those injected (staged) and randomly distributed into groups of 5-10. The day of staging is called day 0. Compounds of the invention, usually formulated in saline (exceptions are noted in tables), are administered to animals by intravenous injection or oral gavage on various schedules starting on day 0 or 1, as noted in the tables. The control group in each experiment is dosed with vehicle on the same schedule. Tumor size is measured every 3-7 days with calipers in two orthogonal dimensions, and tumor volume is calculated from the formula volume=[(length×width^2)/2].
(§2) Tumor/Control (T/C) is obtained by dividing the mean tumor volume of the treated group by the mean tumor volume of the control group on each measurement day. A treatment dose is defined as active if it produced a statistically significant T/C of 0.50 or less. A p value≦0.05, determined by one-side Student's t-test, is required for statistical significance. A treatment dose is defined as toxic if more than 10% of the animals died from a compound-related toxicity.

MAP-rich tubulin = experiment: Tubulin polymerization test with MAP-rich tubulin; format: biochemical, bovine; settings: 0.3 μM compound, 20 min, fold enhancement over control
Experimental: Medium is RPMI-1640 with L-glutamine, supplemented with 10% heat-inactivated fetal calf serum, 100 units/ml penicillin, and 100 μg/ml streptomycin (Gibco, Grand Island, N.Y.). Microtubule-associated protein (MAP)-rich tubulin, containing about 70% tubulin and 30% MAPs (#ML113), and highly purified tubulin (>99% pure, #TL238), both from bovine brain, are obtained from Cytoskeleton, Inc., Denver, Colo. PEM buffer (80 mM piperazine-N,N′-bis[2-ethanesulfonic acid], pH 6.9, 1 mM ethylene glycol-bis(β-aminoethyl ether)-N,N,N′,N′-tetraacetic acid, 1 mM magnesium chloride) and guanosine 5′-triphosphate (GTP) are also obtained from Cytoskeleton. [3H]paclitaxel, specific activity 14.7 Ci/mmol, is purchased from Moravek Biochemicals (Brea, Calif.). [^3H]vinblastine, specific activity 9.60 Ci/mmol and MicroSpin G-50 columns are obtained from Amersham Biosciences (Piscataway, N.J.). […] Other reagents are obtained from Sigma (St. Louis, Mo.).
Two variations of this procedure are done, one using MAP-rich tubulin and one using pure tubulin.
MAP-rich tubulin is dissolved in ice-cold PEM buffer containing 1 mM GTP (GPEM buffer) at a concentration of 1.3 mg/mL. The solution is centrifuged at top speed in an Eppendorf model 5415C microcentrifuge (Brinkmann Instruments, Westbury, N.Y.) for 10 min at […] immediately before use. The tubulin solution is added to wells of a ½-area 96-well plate (Costar No. 3696, Corning, Inc., Corning, N.Y.) already containing the compounds of interest. Each compound is tested in duplicate at a final concentration of 0.3 μM in a volume of 110 μL per well. The final DMSO concentration in all wells is 0.3%. Control reactions, which received compound solvent only, are done in quadruplicate. The plate is put in a SpectraMax Plus plate reader (Molecular Devices Corp. Sunnyvale, Calif.) thermostated at 24° and the absorbance of each well at 340 nm, a measure of the appearance of turbidity due to tubulin polymer formation, is determined every minute for 60 minutes. The absorbance at time 0 for each well is subtracted from each of the subsequent absorbance readings for that well, and then the duplicates are averaged.
In this assay, control reactions with MAP-rich tubulin show an S-shaped absorbance profile characterized by three phases: first, a lag phase during which no change in absorbance occurs; second, a polymerization phase in which absorbance increases; and third, a plateau phase in which absorbance has reached a maximum and little or no further change occurs. Polymerization enhancers such as paclitaxel and docetaxel shorten or eliminate the lag phase, increase the rate of the polymerization phase, and often increase the height of the plateau. […] The compounds of this invention have a taxane-like effect on the polymerization reaction. This has been expressed quantitatively in Table 5 by dividing the mean A340 of each sample at 20 min by the mean A340 of the control at 20 min to give a fold enhancement over control. […] Examples of this invention have factors ranging up to 8.1, with the majority in the 5 to 6-fold range.

[2] = system: A549 Human Non-Small Cell Lung Carcinoma; experiment: Human tumor xenograft test, A549; format: in vivo, athymic mice; settings: A549, intravenously q4dX8 at 40 mg/kg
Experimental: as §1, §2

Row | SMILES | IC50 (COLO 205 cells; Homo sapiens, COLO 205, 72 h) [nM] | A340 Compound/A340 Control (MAP-rich tubulin) | other results
1 | C[C@H](Nc1c(-c2c(F)cc(OCCCN(C)C)cc2F)c(Cl)nc2ncnn12)C(F)(F)F [Example 1, 5-Chloro-6-{4-[3-(dimethylamino)propoxy]-2,6-difluorophenyl}-N-[(1S)-2,2,2-trifluoro-1-methylethyl][1,2,4]triazolo[1,5-a]pyrimidin-7-amine] | – | – | IC50 (COLO 205 cells): 41 nM; tumor growth inhibition (activity call) [1]: active
2 | CNCCCOc1cc(F)c(-c2c(Cl)nc3ncnn3c2NCC(F)(F)F)c(F)c1 [Example 3, 5-Chloro-6-{2,6-difluoro-4-[3-(methylamino)propoxy]phenyl}-N-(2,2,2-trifluoroethyl)[1,2,4]triazolo[1,5-a]pyrimidin-7-amine] | 25 | 6.7 | –
3 | CN(C)CCCOc1cc(F)c(-c2c(Cl)nc3ncnn3c2NCC(F)(F)F)c(F)c1 [Example 4, 5-Chloro-6-{4-[3-(dimethylamino)propoxy]-2,6-difluorophenyl}-N-(2,2,2-trifluoroethyl)[1,2,4]triazolo[1,5-a]pyrimidin-7-amine] | – | – | tumor growth inhibition (activity call) [2]: inhibited the growth
4 | C[C@H](Nc1c(-c2c(F)cc(OCCCN3CCN(C)CC3)cc2F)c(Cl)nc2ncnn12)C(F)(F)F [Example 6, 5-Chloro-6-{2,6-difluoro-4-[3-(4-methylpiperazin-1-yl)propoxy]phenyl}-N-[(1S)-2,2,2-trifluoro-1-methylethyl][1,2,4]triazolo[1,5-a]pyrimidin-7-amine] | 155 | 6.7 | –
5 | CCNCCCOc1cc(F)c(-c2c(Cl)nc3ncnn3c2N[C@@H](C)C(F)(F)F)c(F)c1 [Example 7, 5-Chloro-6-{4-[3-(ethylamino)propoxy]-2,6-difluorophenyl}-N-[(1S)-2,2,2-trifluoro-1-methylethyl][1,2,4]triazolo[1,5-a]pyrimidin-7-amine] | 29 | 6.4 | –
6 | CCN(C)CCCOc1cc(F)c(-c2c(Cl)nc3ncnn3c2N[C@@H](C)C(F)(F)F)c(F)c1 [Example 8, 5-Chloro-6-(4-{3-[ethyl(methyl)amino]propoxy}-2,6-difluorophenyl)-N-[(1S)-2,2,2-trifluoro-1-methylethyl][1,2,4]triazolo[1,5-a]pyrimidin-7-amine] | 48 | 6.2 | –
7 | C[C@H](Nc1c(-c2c(F)cc(OCCCN3CCCCC3)cc2F)c(Cl)nc2ncnn12)C(F)(F)F [Example 10, 5-Chloro-6-[2,6-difluoro-4-(3-piperidin-1-ylpropoxy)phenyl]-N-[(1S)-2,2,2-trifluoro-1-methylethyl][1,2,4]triazolo[1,5-a]pyrimidin-7-amine] | 113 | 6.3 | –
8 | C[C@H](Nc1c(-c2c(F)cc(OCCCN3CCC3)cc2F)c(Cl)nc2ncnn12)C(F)(F)F [Example 12, 6-[4-(3-Azetidin-1-ylpropoxy)-2,6-difluorophenyl]-5-chloro-N-[(1S)-2,2,2-trifluoro-1-methylethyl][1,2,4]triazolo[1,5-a]pyrimidin-7-amine] | 326 | 2.9 | –
9 | C[C@H](Nc1c(-c2ccc(OCCCN(C)C)cc2F)c(Cl)nc2ncnn12)C(F)(F)F [Example 13, 5-Chloro-6-{4-[3-(dimethylamino)propoxy]-2-fluorophenyl}-N-[(1S)-2,2,2-trifluoro-1-methylethyl][1,2,4]triazolo[1,5-a]pyrimidin-7-amine] | 262 | 5.4 | –
10 | CNCCOc1cc(F)c(-c2c(Cl)nc3ncnn3c2N[C@@H](C)C(F)(F)F)c(F)c1 [Example 14, 5-Chloro-6-{2,6-difluoro-4-[2-(methylamino)ethoxy]phenyl}-N-[(1S)-2,2,2-trifluoro-1-methylethyl][1,2,4]triazolo[1,5-a]pyrimidin-7-amine] | 881 | 1.5 | –
11 | C[C@H](Nc1c(-c2c(F)cc(OCCCCN(C)C)cc2F)c(Cl)nc2ncnn12)C(F)(F)F [Example 15, 5-Chloro-6-{4-[4-(dimethylamino)butoxy]-2,6-difluorophenyl}-N-[(1S)-2,2,2-trifluoro-1-methylethyl][1,2,4]triazolo[1,5-a]pyrimidin-7-amine] | 276 | 5.5 | –
12 | C[C@H](Nc1c(-c2c(F)ccc(OCCCCN(C)C)c2F)c(Cl)nc2ncnn12)C(F)(F)F [Example 29, 5-Chloro-6-{3-[4-(dimethylamino)butoxy]-2,6-difluorophenyl}-N-[(1S)-2,2,2-trifluoro-1-methylethyl][1,2,4]triazolo[1,5-a]pyrimidin-7-amine] | 433 | – | –
13 | CN(C)CCCOc1cc(F)c(-c2c(Cl)nc3ncnn3c2C2CCCCCC2)c(F)c1 [Example 31, 3-[4-(5-Chloro-7-cycloheptyl[1,2,4]triazolo[1,5-a]pyrimidin-6-yl)-3,5-difluorophenoxy]-N,N-dimethylpropan-1-amine] | 19 | – | –
14 | CNCCCOc1cc(F)c(-c2c(Cl)nc3ncnn3c2N[C@H](C)C(F)(F)F)c(F)c1 [Example 33, 5-Chloro-6-{2,6-difluoro-4-[3-(methylamino)propoxy]phenyl}-N-[(1R)-2,2,2-trifluoro-1-methylethyl][1,2,4]triazolo[1,5-a]pyrimidin-7-amine] | 126 | – | –
